Source: US8440652B2, “MST1 kinase inhibitors and methods of their use” (Lexicon Pharmaceuticals, Inc., priority 2011, dated 2013)
Where two headings read alike, the source gives them in different places.

Molecular target: T1, MST1 (Homo sapiens, UniProt Q13043)
T1 sequence (Q13043 1-487): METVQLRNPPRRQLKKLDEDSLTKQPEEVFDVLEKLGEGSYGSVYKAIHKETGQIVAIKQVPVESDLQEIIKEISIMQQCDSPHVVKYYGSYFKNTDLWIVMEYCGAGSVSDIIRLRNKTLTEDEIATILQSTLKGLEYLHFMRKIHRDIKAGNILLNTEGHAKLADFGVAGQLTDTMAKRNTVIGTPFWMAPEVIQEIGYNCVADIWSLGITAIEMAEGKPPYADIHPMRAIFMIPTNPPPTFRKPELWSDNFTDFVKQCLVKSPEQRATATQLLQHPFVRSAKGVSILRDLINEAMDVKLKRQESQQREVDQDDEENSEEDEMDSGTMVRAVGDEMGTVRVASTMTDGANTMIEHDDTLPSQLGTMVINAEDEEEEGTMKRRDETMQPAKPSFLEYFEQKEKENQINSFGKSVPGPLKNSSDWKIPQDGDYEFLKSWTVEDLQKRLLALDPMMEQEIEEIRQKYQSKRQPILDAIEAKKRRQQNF
Assay: In vitro measurement of MST1 inhibition (Z′-Lyte kinase assay)
Assay type: biochemical
Experimental: Assays were performed in low-volume 384-well black proxiplates (Perkin Elmer, PE-Blk-Proxi-6008269). Eight compounds were first diluted into LDV (Echo) plates using a Multiprobe, at a starting concentration of 1 mM compound in 100% DMSO. Using the ECHO, 75 nl compound was pinged into 384-well proxiplates. The starting concentration of compound in each assay plate is 7.5 uM, followed by 3-fold dilutions, to give quadruplicate ten-point concentration curves. A 3× solution of MST1 enzyme in kinase buffer (Invitrogen, PR4940C) was added to wells containing compound or DMSO controls, followed by a 10 minute preincubation step. Reactions were initiated by adding 5 μL of a mixture of ATP and Z′-Lyte S/T Pep 7 (Invitrogen, PV3180) and proceeded at RT for 1 hour. […] At the end of the kinase reaction, 10 ul of developing solution (Invitrogen, catalog #PR4876B; development buffer A diluted […] in development buffer B) was added to each well and incubated at RT for 1 hr. All wells were read on a Tecan at 400 nm excitation and 460 nm/530 nm emission. Plus and minus enzyme controls were used to calculate percent inhibition and IC50 curves were generated using Excel.

[1] = 1 μM ATP, read-out: IC50 (μM) 1 μM ATP
[2] = 50 μM ATP, read-out: IC50 (μM) 50 μM ATP

Compound	IC50 [1] [µM]	IC50 [2] [µM]
NC(=O)c1ccc(-c2cc(-c3ccc(S(=O)(=O)NC4CC4)cc3)cnc2N)cc1 [4-(2-amino-5-(4-(N-cyclopropylsulfamoyl)phenyl)pyridin-3-yl)benzamide]	< 0.05	< 0.05
CN(C)c1nc(-c2cnc(N)c(-c3ccc4c(c3)CCNC4=O)c2)cs1 [6-(2-amino-5-(2-(dimethylamino)thiazol-4-yl)pyridin-3-yl)-3,4-dihydroisoquinolin-1(2H)-one]	–	< 0.05
CCN(C)S(=O)(=O)c1ccc(-c2cnc(N)c(-c3ccc4c(c3)CCNC4=O)n2)nc1 [6-(5-amino-6-(1-oxo-1,2,3,4-tetrahydroisoquinolin-6-yl)pyrazin-2-yl)-N-ethyl-N-methylpyridine-3-sulfonamide]	< 0.01	< 0.01
N#CC1(c2ccc(-c3cnc(N)c(-c4ccc5c(c4)CCNC5=O)n3)cc2)CCCC1 [1-(4-(5-amino-6-(1-oxo-1,2,3,4-tetrahydroisoquinolin-6-yl)pyrazin-2-yl)phenyl)cyclopentanecarbonitrile]	< 0.01	< 0.01
Nc1ncc(-c2ccc3c(c2)CC(=O)N3)cc1-c1ccc2c(c1)CCNC2=O [6-(2-amino-5-(2-oxoindolin-5-yl)pyridin-3-yl)-3,4-dihydroisoquinolin-1(2H)-one]	< 0.05	< 0.05
Nc1ncc(-c2ccc(S(=O)(=O)NC3CC3)cc2)cc1-c1ccc2c(c1)CCNC2=O [4-(6-amino-5-(1-oxo-1,2,3,4-tetrahydroisoquinolin-6-yl)pyridin-3-yl)-N-cyclopropylbenzenesulfonamide]	< 0.01	< 0.01
CC(C)(c1ccc(-c2cnc(N)c(-c3ccc4c(c3)CCNC4=O)c2)cc1)N1CCOCC1 [6-(2-amino-5-(4-(2-morpholinopropan-2-yl)phenyl)pyridin-3-yl)-3,4-dihydroisoquinolin-1(2H)-one]	< 0.05	< 0.01
NC(=O)c1ccc(-c2cc(-c3ccc(CC(=O)N4CCCC4)cc3)cnc2N)cc1 [4-(2-amino-5-(4-(2-oxo-2-(pyrrolidin-1-yl)ethyl)phenyl)pyridin-3-yl)benzamide]	–	< 0.15
CCN(C)S(=O)(=O)c1ccc(-c2cnc(N)c(-c3ccc4c(c3)CCNC4=O)c2)cc1 [4-(6-amino-5-(1-oxo-1,2,3,4-tetrahydroisoquinolin-6-yl)pyridin-3-yl)-N-ethyl-N-methylbenzenesulfonamide]	< 0.01	< 0.01
CC(C)(C#N)c1ccc(-c2cnc(N)c(-c3ccc4c(=O)[nH]ccc4c3)n2)cc1 [2-(4-(5-amino-6-(1-oxo-1,2-dihydroisoquinolin-6-yl)pyrazin-2-yl)phenyl)-2-methylpropanenitrile]	< 0.05	< 0.01
CN(Cc1ccc(-c2cnc(N)c(-c3ccc4c(c3)CCNC4=O)c2)cc1)C1CC1 [6-(2-amino-5-(4-((cyclopropyl(methyl)amino)methyl)phenyl)pyridin-3-yl)-3,4-dihydroisoquinolin-1(2H)-one]	< 0.05	< 0.01
N#Cc1ccc(-c2cnc(N)c(-c3ccc4c(c3)C3(CC3)CNC4=O)n2)cc1 [4-(5-amino-6-(1′-oxo-2′,3′-dihydro-1′H-spiro[cyclopropane-1,4′-isoquinolin]-6′-yl)pyrazin-2-yl)benzonitrile]	< 0.05	< 0.01
CC1(C)CNC(=O)c2ccc(-c3cc(-c4ccc(C5(C#N)CCOCC5)cc4)cnc3N)cc21 [4-(4-(6-amino-5-(4,4-dimethyl-1-oxo-1,2,3,4-tetrahydroisoquinolin-6-yl)pyridin-3-yl)phenyl)tetrahydro-2H-pyran-4-carbonitrile]	< 0.01	< 0.01
N#CCn1cc(-c2cnc(N)c(-c3ccc4c(c3)CCNC4=O)n2)cn1 [2-(4-(5-amino-6-(1-oxo-1,2,3,4-tetrahydroisoquinolin-6-yl)pyrazin-2-yl)-1H-pyrazol-1-yl)acetonitrile]	< 0.15	< 0.05
CCN(C)S(=O)(=O)c1ccc(-c2cnc(N)c(-c3ccc4c(c3)CCNC4=O)n2)cc1 [4-(5-amino-6-(1-oxo-1,2,3,4-tetrahydroisoquinolin-6-yl)pyrazin-2-yl)-N-ethyl-N-methylbenzenesulfonamide]	< 0.01	< 0.01
Nc1ncc(-c2ccc(S(=O)(=O)NC3CC3)c(F)c2)cc1-c1ccc2c(c1)CCNC2=O [4-(6-amino-5-(1-oxo-1,2,3,4-tetrahydroisoquinolin-6-yl)pyridin-3-yl)-N-cyclopropyl-2-fluorobenzenesulfonamide]	< 0.01	< 0.01
CN(C1CCC1)S(=O)(=O)c1ccc(-c2cnc(N)c(-c3ccc4c(c3)CCNC4=O)n2)cc1 [4-(5-amino-6-(1-oxo-1,2,3,4-tetrahydroisoquinolin-6-yl)pyrazin-2-yl)-N-cyclobutyl-N-methylbenzenesulfonamide]	< 0.01	< 0.01
NC(=O)c1ccc(-c2cc(-c3cn[nH]c3)cnc2N)cc1 [4-(2-amino-5-(1H-pyrazol-4-yl)pyridin-3yl)benzamide]	–	< 0.15
[2H]C1([2H])CNC(=O)c2ccc(-c3nc(-c4ccc(S(=O)(=O)N(C5CC5)C([2H])([2H])[2H])cc4)cnc3N)cc21 [4-(5-amino-6-(4,4-dideutero-1-oxo-1,2,3,4-tetrahydroisoquinolin-6-yl)pyrazin-2-yl)-N-cyclopropyl-N-trideuteromethyl-benzenesulfonamide]	< 0.01	< 0.01
CCC(=O)c1ccc(-c2cnc(N)c(-c3ccc4c(c3)CCNC4=O)n2)cc1 [6-(3-amino-6-(4-propionylphenyl)pyrazin-2-yl)-3,4-dihydroisoquinolin-1(2H)-one]	< 0.05	< 0.01
N#CC1(c2ccc(-c3cnc(N)c(-c4ccc5c(c4)C4(CC4)CNC5=O)n3)cc2)CC1 [1-(4-(5-amino-6-(1′-oxo-2′,3′-dihydro-1′H-spiro[cyclopropane-1,4′-isoquinolin]-6′-yl)pyrazin-2-yl)phenyl)cyclopropanecarbonitrile]	< 0.01	< 0.01
CCS(=O)(=O)c1ccc(-c2cnc(N)c(-c3ccc4c(c3)CCNC4=O)c2)cc1 [6-(2-amino-5-(4-(ethylsulfonyl)phenyl)pyridin-3-yl)-3,4-dihydroisoquinolin-1(2H)-one]	< 0.05	< 0.05
Nc1ncc(-c2ccc(S(=O)(=O)NC3CC3)cc2)nc1-c1ccc2c(c1)C1(CC1)CNC2=O [4-(5-amino-6-(1′-oxo-2′,3′-dihydro-1′H-spiro[cyclopropane-1,4′-isoquinolin]-6′-yl)pyrazin-2-yl)-N-cyclopropylbenzenesulfonamide]	< 0.01	< 0.01
O=C1NCCc2cc(-c3c[nH]c4ncc(-c5ccc(S(=O)(=O)NC6CC6)cc5)cc34)ccc21 [N-cyclopropyl-4-(3-(1-oxo-1,2,3,4-tetrahydroisoquinolin-6-yl)-1H-pyrrolo[2,3-b]pyridin-5-yl)benzenesulfonamide]	< 0.05	< 0.01
Nc1ncc(-c2ccc(F)cc2)nc1-c1ccc2c(c1)C1(CC1)CNC2=O [6′-(3-amino-6-(4-fluorophenyl)pyrazin-2-yl)-2′,3′-dihydro-1′H-spiro[cyclopropane-1,4′-isoquinolin]-1′-one]	< 0.15	< 0.01
CN(C1CC1)S(=O)(=O)c1ccc(-c2cnc(N)c(-c3ccc4c(c3)CCNC4=O)n2)cn1 [5-(5-amino-6-(1-oxo-1,2,3,4-tetrahydroisoquinolin-6-yl)pyrazin-2-yl)-N-cyclopropyl-N-methylpyridine-2-sulfonamide]	< 0.05	< 0.01
NCC1CCC(NC(=O)c2nc(-c3ccc(S(=O)(=O)NC4CC4)cc3)cnc2N)CC1 (stereo not drawn) [3-amino-N-(4-(aminomethyl)cyclohexyl)-6-(4-(N-cyclopropylsulfamoyl)phenyl)pyrazine-2-carboxamide]	< 0.05	< 0.01
Nc1ncc(-c2ccc(S(=O)(=O)NC3CC3)cc2)nc1-c1ccc2c(c1)OCCNC2=O [4-(5-amino-6-(5-oxo-2,3,4,5-tetrahydrobenzo[f][1,4]oxazepin-8-yl)pyrazin-2-yl)-N-cyclopropylbenzenesulfonamide]	< 0.01	< 0.01
Nc1ncc(-c2ccc(S(=O)(=O)NC3CC3)cc2)nc1-c1ccc2c(c1)CCNC2=O [4-(5-amino-6-(1-oxo-1,2,3,4-tetrahydroisoquinolin-6-yl)pyrazin-2-yl)-N-cyclopropylbenzenesulfonamide]	< 0.01	< 0.01
N#CC1(c2ccc(-c3cnc(N)c(-c4ccc5c(c4)CCCNC5=O)n3)cc2)CCOCC1 [4-(4-(5-amino-6-(1-oxo-2,3,4,5-tetrahydro-1H-benzo[c]azepin-7-yl)pyrazin-2-yl)phenyl)tetrahydro-2H-pyran-4-carbonitrile]	< 0.05	< 0.01
